Test results: US20150297615A1, “ANDROGEN RECEPTOR INACTIVATION CONTRIBUTES TO ANTITUMOR EFFICACY OF CYP17 INHIBITORS IN PROSTATE CANCER” (UNIVERSITY OF MARYLAND, BALTIMORE, priority 2008, published 2015)
Positions count from the first letter of the chain named. Like-named read-outs stand apart in the source and are kept apart here.

How the values were obtained:
wild-type AR = molecular target: T1, wild-type AR (Homo sapiens, UniProt P10275); test: Competitive inhibition of [3H]R1881 binding, wild-type AR (LAPC4/PC3-AR cells); details: read-out: wild-type (LAPC4/PC3-AR), inhibition of [3H]R1881 binding as symbol
T1 construct: the wild-type AR expressed endogenously in LAPC4 cells; endogenous in cells; host or cells: LAPC4 cells (endogenous) and PC3-AR cells (PC-3 stably transfected with human wild-type AR)
T1 sequence (P10275 1-920): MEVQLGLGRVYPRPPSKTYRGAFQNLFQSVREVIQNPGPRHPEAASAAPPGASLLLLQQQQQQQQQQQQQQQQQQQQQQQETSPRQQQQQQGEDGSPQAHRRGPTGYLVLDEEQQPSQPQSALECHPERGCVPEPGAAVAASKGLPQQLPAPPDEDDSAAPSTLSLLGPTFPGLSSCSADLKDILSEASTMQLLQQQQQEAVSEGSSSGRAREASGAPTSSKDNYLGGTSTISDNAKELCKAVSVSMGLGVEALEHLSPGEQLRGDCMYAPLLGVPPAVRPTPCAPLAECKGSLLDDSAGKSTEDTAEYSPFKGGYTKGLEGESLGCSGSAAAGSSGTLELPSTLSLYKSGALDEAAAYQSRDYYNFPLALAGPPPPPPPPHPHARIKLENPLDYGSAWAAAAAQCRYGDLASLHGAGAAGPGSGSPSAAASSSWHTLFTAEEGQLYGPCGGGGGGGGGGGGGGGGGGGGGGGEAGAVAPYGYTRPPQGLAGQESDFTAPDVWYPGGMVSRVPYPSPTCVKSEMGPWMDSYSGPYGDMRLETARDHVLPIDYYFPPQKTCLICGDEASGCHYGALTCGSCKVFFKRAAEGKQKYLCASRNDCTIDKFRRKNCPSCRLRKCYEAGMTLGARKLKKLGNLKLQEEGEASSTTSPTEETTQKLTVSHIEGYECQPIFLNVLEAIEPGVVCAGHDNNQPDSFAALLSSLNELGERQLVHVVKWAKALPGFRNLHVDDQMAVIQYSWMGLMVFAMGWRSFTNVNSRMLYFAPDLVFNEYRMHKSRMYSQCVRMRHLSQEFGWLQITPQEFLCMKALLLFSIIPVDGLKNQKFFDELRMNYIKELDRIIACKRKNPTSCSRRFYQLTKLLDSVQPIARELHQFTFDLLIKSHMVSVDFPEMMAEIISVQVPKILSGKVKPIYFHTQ
Description: (§1) In order to determine if the CYP17 inhibitors interact with the AR, competitive binding assays were performed as described previously. The ability of the test compounds (1 nM-10 μM) to displace [^3H]R1881 (5.0 nM) from the AR was determined in LAPC4 cells (wild-type AR), PC3 cells transfected with wild-type AR (PC3-AR), LNCaP cells which express an endogenous AR with a mutation in the ligand binding domain (T877A), and PC3 cells transfected with an AR containing a mutation in the DNA binding domain (T575A).
(§2) The ability of the test compounds to displace [^3H]R1881 (5.0 nM) from the androgen receptor was determined in LAPC4 cells (wild-type AR), PC3 cells transfected with wild-type AR, LNCaP cells which express an endogenous AR with a mutation in the ligand binding domain (T877A), and PC3 cells transfected with an AR containing a mutation in the DNA binding domain (T575A). Cells were plated (2-3×10^5) in 24 well multiwell dishes in steroid-free medium and allowed to attach. The following day the medium was replaced with serum-free, steroid free RPMI supplemented with 0.1% BSA and containing [^3H]R1881 (5 nM), test compounds (1 nM-10 μM), and 1 μM triamcinolone acetonide to saturate progesterone and glucocorticoid receptors. Following a 2 hour incubation period at 37° C., cells were washed twice with ice-cold DPBS and solubilized in DPBS containing 0.5% SDS and 20% glycerol.

T877A AR = molecular target: T2, T877A AR (Homo sapiens, UniProt P10275, T878A); test: Competitive inhibition of [3H]R1881 binding, T877A AR (LNCaP cells); details: read-out: T877A (LNCaP), inhibition of [3H]R1881 binding as symbol
T2 construct: endogenous in cells; host or cells: LNCaP cells
T2 sequence (P10275 1-920 T878A): T1 sequence (P10275 1-920) with T878A
Description: as §1, §2

LNCaP cells = test: Cell proliferation assay (XTT), LNCaP cells; details: Homo sapiens, 168 h
Description: (§3) To determine the effect of steroids and novel compounds on cell proliferation, each cell type was transferred into steroid-free medium three days prior to the start of the experiments (steroid-free medium consisted of phenol red free RPMI supplemented with 5% dextran-coated, charcoal treated serum and 1% penicillin/streptomycin solution). Growth studies were then performed by plating cells (1.5×10^4cells/well) in 24-well multiwell dishes (Corning, Inc. Corning, N.Y.). After a 24 hour attachment period, the medium was aspirated and replaced with steroid-free medium containing vehicle or the indicated concentrations of androgens and novel compounds (1 nM-10 μM). Control wells were treated with vehicle (ethanol). […] The medium was changed every three days and the numbers of viable cells were compared by MTT or XTT (LNCaP) assay on the seventh day.
(§4) For the MTT procedure, following incubation of cells for the above mentioned time, 0.5 mg/ml MTT was added to each well and incubated at 37° C. for three hours. Following incubation, the medium was aspirated completely, with care taken not to disturb the formazan crystals. DMSO (500 μl) was used to solubilize these crystals. After slight shaking, the plates were read at 540 nm with a Victor 1420 scanning multi-well spectrophotometer. All results represent the average of a minimum of three wells. Additional control consisted of medium alone with no cells. XTT was performed essentially as MTT, with the deletion of the solubilization step and was preferred for the LNCaP cells that adhere poorly to the plates.
(§5) LNCaP cells were seeded at 15,000 cells/well in 24 well multi-well plates, and LAPC4 cells were seeded at 15,000 cells/well. […] The number of viable cells was compared by MTT assay (LAPC4) or XTT assay (LNCaP) on the 7th day.

LAPC4 cells = test: Cell proliferation assay (MTT), LAPC4 cells; details: Homo sapiens, LAPC4, 168 h
Description: as §3, §4, §5

[1] = read-out: LNCaP IC50 (μM), DHT +
[2] = read-out: LNCaP IC50 (μM), DHT −
[3] = read-out: LAPC4 IC50 (μM), DHT +
[4] = read-out: LAPC4 IC50 (μM), DHT −

Row | inhibition at 10 µM (wild-type AR) | inhibition at 10 µM (T877A AR) | IC50 (LNCaP cells; [1]) | IC50 (LNCaP cells; [2]) | Structure (SMILES) | IC50 (LAPC4 cells; [3]) | IC50 (LAPC4 cells; [4])
1 | < 20% | < 20% | – | – | C[C@]12CC[C@H](O)CC1=CC[C@@H]1[C@@H]2CC[C@]2(C)C(c3cccnc3)=CC[C@@H]12 [Abiraterone] | – | –
2 | – | – | 8.6 µM | 4.6 µM | CC(O)(CS(=O)(=O)c1ccc(F)cc1)C(=O)Nc1ccc(C#N)c(C(F)(F)F)c1 (stereo not shown) [Casodex, Bicalutamide] | 10 µM | 9 µM
3 | – | – | 6 µM | 2.6 µM | C[C@]12CC[C@H](O)CC1=CC[C@@H]1[C@@H]2CC[C@]2(C)C(n3cnc4ccccc43)=CC[C@@H]12 [VN/124-1, 3β-hydroxy-17-(1H-benzimidazole-1-yl)androsta-5,16-diene] | 3.2 µM | 4 µM
